Measurements taken from ChEMBL document CHEMBL4420066, “Aryl amine substituted quinoxaline used as anticancer drugs” (2017).
Calls of active or inactive are those of the source. The calls are words filed in the database; no cut-off is given here.

How the values were obtained:
Homo sapiens [1] = organism: Homo sapiens; test: Induction of apoptosis in human PLC5 cells assessed as induction of PARP cleavage at 0.5 to 4 uM incubated for 48 hrs by Western blotting analysis; type: functional, cell-based
Homo sapiens [2] = organism: Homo sapiens; test: Induction of necrosis in human PLC5cells >= 2 uM incubated for 48 hrs by annexin-V-FITC staining based by flow cytometry relative to control; type: functional
Hep 3B2 [3] = test: Inhibition of CIP2A protein expression in human Hep3B cells assessed as CIP2A protein expression ratio level at 2 uM by Western blotting analysis (Rvb =1); type: functional
Hep 3B2 [4] = test: Inhibition of CIP2A protein expression in human Hep3B cells by Western blotting analysis; type: functional, cell-based
[5] = Inhibition of CIP2A protein expression in human PLC5 cells assessed as CIP2A protein expression ratio level at 1 uM by Western blotting analysis (Rvb =1); type: functional
Homo sapiens [6] = organism: Homo sapiens; test: Inhibition of CIP2A protein expression in human PLC5 cells at 2 uM by Western blotting analysis; type: functional, cell-based
Homo sapiens [7] = organism: Homo sapiens; test: Inhibition of human CIP2A gene promoter activity in human PLC5 cells by luciferase reporter gene assay; type: cell-based
Homo sapiens [8] = organism: Homo sapiens; test: Induction of apoptosis in human PLC5 cells assessed as caspase-3 activation at 0.5 to 4 uM incubated for 48 hrs by Western blotting analysis; type: functional, cell-based
Homo sapiens [9] = organism: Homo sapiens; test: Inhibition of human CIP2A gene promoter in human PLC5 cells assessed as inhibition of ELK1 protein expression at 2 uM by Western blotting analysis; type: cell-based
Mus musculus [10] = test: Suppression of CIP2A expression in tumor of human PLC5 cells xenografted in mouse at 10 mg/kg dosed for 4 weeks by Western blot analysis; type: functional, organism-based
Homo sapiens [11] = organism: Homo sapiens; test: Induction of apoptosis in human PLC5 cells at 2 uM in presence of caspase inhibitor Z-VAD-fmk incubated for 48 hrs by annexin-V-FITC staining based by flow cytometry; type: functional, cell-based
HA22T cell line [12] = test: Inhibition of PP2A-A protein expression in human HA22T cells at 1 uM incubated for 24 hrs by Western blotting analysis; type: functional, cell-based
HA22T cell line [13] = test: Induction of apoptosis in human HA22T cells assessed as caspase-3 activation at 0.5 to 4 uM incubated for 48 hrs by Western blotting analysis; type: functional, cell-based
Homo sapiens [14] = organism: Homo sapiens; test: Activation of PP2A in human SKHEP1 cells assessed as increase in protein phosphatase activity at 1 uM incubated for 24 hrs using phosphopeptide substrate incubated for 10 mins by malachite green-phosphate complex assay; type: cell-based
Homo sapiens [15] = organism: Homo sapiens; test: Induction of apoptosis in human PLC5 cells assessed as caspase-9 activation at 0.5 to 4 uM incubated for 48 hrs by Western blotting analysis; type: functional, cell-based
Mus musculus [16] = test: Activation of PP2A activity in tumor of human PLC5 cells xenografted in mouse at 10 mg/kg dosed for 4 weeks; type: functional, organism-based
Homo sapiens [17] = organism: Homo sapiens; test: Activation of PP2A in human HA22T cells assessed as increase in protein phosphatase activity at 1 uM incubated for 24 hrs using phosphopeptide substrate incubated for 10 mins by malachite green-phosphate complex assay; type: cell-based
Homo sapiens [18] = organism: Homo sapiens; test: Inhibition of PP2A-A protein expression in human PLC5 cells at 1 uM incubated for 24 hrs by Western blotting analysis; type: functional, cell-based
Hep 3B2 [19] = test: Induction of apoptosis in human Hep3B cells assessed as caspase-3 activation at 0.5 to 4 uM incubated for 48 hrs by Western blotting analysis; type: functional, cell-based
[20] = biological target: Serine/threonine-protein kinase AKT (Homo sapiens) (UniProt P31751+Q9Y243+P31749); test: Inhibition of Akt phosphorylation at S473 residue in human PLC5 cells at 2 uM incubated for 24 hrs in presence of PP2A-C siRNA by Western blotting analysis; type: cell-based
Serine/threonine-protein kinase AKT (Homo sapiens), sequence (P31749 whole entry, looked up): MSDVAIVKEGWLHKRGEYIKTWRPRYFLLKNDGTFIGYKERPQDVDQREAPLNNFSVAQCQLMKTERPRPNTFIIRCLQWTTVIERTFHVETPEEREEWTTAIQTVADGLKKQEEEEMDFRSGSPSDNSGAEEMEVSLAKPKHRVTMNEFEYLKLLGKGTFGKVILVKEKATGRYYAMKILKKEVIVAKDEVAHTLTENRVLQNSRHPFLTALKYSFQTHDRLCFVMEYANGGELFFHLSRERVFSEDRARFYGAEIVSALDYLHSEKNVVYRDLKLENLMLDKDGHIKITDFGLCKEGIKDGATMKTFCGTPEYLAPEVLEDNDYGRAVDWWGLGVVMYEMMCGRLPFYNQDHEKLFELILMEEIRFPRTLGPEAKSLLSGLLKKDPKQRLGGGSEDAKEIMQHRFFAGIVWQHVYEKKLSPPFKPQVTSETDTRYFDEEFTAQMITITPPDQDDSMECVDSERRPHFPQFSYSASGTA
Serine/threonine-protein kinase AKT (Homo sapiens), sequence (P31751 whole entry, looked up): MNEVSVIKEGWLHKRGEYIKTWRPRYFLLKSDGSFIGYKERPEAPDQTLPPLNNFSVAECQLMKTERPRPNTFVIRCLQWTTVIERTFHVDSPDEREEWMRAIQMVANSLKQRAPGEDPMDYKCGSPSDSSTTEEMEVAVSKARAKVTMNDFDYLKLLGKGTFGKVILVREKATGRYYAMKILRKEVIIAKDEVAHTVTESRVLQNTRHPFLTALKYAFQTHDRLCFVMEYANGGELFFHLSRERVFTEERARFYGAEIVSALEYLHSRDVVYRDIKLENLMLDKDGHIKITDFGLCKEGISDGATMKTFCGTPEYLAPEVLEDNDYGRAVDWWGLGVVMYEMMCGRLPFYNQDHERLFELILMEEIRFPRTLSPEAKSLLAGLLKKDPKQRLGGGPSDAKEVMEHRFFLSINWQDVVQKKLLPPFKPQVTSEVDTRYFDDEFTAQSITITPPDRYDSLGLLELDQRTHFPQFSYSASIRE
Serine/threonine-protein kinase AKT (Homo sapiens), sequence (Q9Y243 whole entry, looked up): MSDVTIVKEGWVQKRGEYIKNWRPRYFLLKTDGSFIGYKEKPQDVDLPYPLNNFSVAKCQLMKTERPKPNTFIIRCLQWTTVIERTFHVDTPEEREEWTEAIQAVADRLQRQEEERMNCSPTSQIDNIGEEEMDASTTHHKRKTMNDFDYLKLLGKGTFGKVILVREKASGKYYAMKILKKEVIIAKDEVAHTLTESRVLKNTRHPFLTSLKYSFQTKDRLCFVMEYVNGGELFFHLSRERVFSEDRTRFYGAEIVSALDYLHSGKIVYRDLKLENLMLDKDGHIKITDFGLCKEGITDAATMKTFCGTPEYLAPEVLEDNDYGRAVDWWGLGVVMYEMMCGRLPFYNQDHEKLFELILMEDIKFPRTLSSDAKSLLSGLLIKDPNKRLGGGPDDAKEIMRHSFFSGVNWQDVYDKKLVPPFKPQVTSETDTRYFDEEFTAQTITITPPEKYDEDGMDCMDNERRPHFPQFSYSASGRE

In the case of `C#Cc1cccc(Nc2nc3ccccc3nc2Nc2cccc(C#C)c2)c1`, the Activity (Homo sapiens [1]) is reported as “Dose-dependent effect”, the Activity (Homo sapiens [2]) is reported as 50% and the Ratio (Hep 3B2 [3]) is reported as 0.49. The inhibition (Hep 3B2 [4]) was “Dose-dependent effect”, the Ratio [5] was 0.28 and the inhibition (Homo sapiens [6]) was “inactive”. For the same compound, the inhibition (Homo sapiens [7]) was “Dose-dependent effect”, the Activity (Homo sapiens [8]) was “Dose-dependent effect” and the inhibition (Homo sapiens [9]) was “Active”. For the same compound, the Activity (Mus musculus [10]) was “Active”, the Activity (Homo sapiens [11]) was “inactive” and the inhibition (HA22T cell line [12]) was “inactive”. The Activity (HA22T cell line [13]) was “Dose-dependent effect”, the Activity (Homo sapiens [14]) was “Active” and the Activity (Homo sapiens [15]) was “Dose-dependent effect”. For the same compound, the Activity (Mus musculus [16]) was “Active”, the Activity (Homo sapiens [17]) was “Active” and the inhibition (Homo sapiens [18]) was “inactive”. For the same compound, the Activity (Hep 3B2 [19]) was “Dose-dependent effect” and the inhibition [20] was “inactive”.
